Measurements: patent publication US20220089575A1, “FARNESOID X RECEPTOR AGONISTS AND USES THEREOF” (Metacrine, Inc., priority 2017, published 2022)

What follows are compounds tested against T1, hFXR (Homo sapiens, UniProt Q96RI1) (assay: In Vitro FXR Assay (TK): TK-ECRE-luc reporter in transfected CV-1 cells). Conditions: 18 hrs, luminescence, maximum efficacy of <25% of the Fexarmine control classified as '+'.
T1 construct: expressed in transfected cells; host or cells: CV-1 cells
T1 sequence (Q96RI1 1-486): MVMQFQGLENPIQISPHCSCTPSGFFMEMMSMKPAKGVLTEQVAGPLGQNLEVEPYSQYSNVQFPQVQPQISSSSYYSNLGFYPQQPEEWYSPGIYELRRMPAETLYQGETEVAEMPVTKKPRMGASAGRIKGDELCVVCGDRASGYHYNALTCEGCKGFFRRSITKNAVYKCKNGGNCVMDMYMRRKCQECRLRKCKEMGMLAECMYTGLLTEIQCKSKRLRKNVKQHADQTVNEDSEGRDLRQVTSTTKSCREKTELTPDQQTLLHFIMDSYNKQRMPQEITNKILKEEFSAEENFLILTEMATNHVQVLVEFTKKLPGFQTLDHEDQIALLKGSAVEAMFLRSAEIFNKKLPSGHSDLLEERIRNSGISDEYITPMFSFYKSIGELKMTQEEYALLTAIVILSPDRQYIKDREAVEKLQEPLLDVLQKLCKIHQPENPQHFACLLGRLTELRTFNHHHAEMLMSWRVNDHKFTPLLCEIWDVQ
T1 sequence (P19793 1-462 partner): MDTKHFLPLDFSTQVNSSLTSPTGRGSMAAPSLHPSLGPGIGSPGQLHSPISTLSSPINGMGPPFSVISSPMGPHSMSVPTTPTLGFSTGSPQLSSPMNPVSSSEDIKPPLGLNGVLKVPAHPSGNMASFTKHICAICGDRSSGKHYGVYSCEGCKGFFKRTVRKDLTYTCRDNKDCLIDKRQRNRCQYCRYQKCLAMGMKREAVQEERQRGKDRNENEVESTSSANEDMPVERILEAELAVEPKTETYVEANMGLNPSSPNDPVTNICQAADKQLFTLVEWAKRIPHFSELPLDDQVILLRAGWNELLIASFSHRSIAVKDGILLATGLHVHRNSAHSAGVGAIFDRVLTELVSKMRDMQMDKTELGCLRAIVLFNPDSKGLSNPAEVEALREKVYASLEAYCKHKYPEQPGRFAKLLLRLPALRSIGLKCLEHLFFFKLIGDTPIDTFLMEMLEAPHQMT
Assay type: cell-based
How it was run: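 CV-1 cells in DMEM with 10% charcoal-stripped FBS were co-transfected with hFXR, hRXR, TK-ECRE-luc reporter and pCMX-YFP plasmids. After 18 h, compounds serially diluted in DMSO were added for a further 18 h, then cells were lysed and luminescence read.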

EC50, ≤ 250 nM:
COc1ccc([C@H]2CC[C@H](CN(c3cccc(-c4cnn(C(C)C)c4)c3)C(=O)[C@H]3CC[C@H](OC(=O)N4CC(O)C4)CC3)CC2)cc1C#N [Compound 7.20, trans-4-(((trans-4-(3-Cyano-4-methoxyphenyl)cyclohexyl)methyl)(3-(1-isopropyl-1H-pyrazol-4-yl)phenyl)carbamoyl)cyclohexyl 3-hydroxyazetidine-1-carboxylate]
COc1ccc([C@H]2CC[C@H](CN(c3cc(-c4cnn(C5CC5)c4)ccn3)C(=O)[C@H]3CC[C@H](OC(=O)N4CC(O)C4)CC3)CC2)cc1C#N [Compound 7.21, trans-4-(((trans-4-(3-Cyano-4-methoxyphenyl)cyclohexyl)methyl)(4-(1-cyclopropyl-1H-pyrazol-4-yl)pyridin-2-yl)carbamoyl)cyclohexyl 3-hydroxyazetidine-1-carboxylate]
COc1ccc([C@H]2CC[C@H](CN(c3cc(-c4cnn(C(C)C)c4)ccn3)C(=O)[C@H]3CC[C@H](OC(=O)N4CC(O)C4)CC3)CC2)cc1C#N [Compound 7.22, trans-4-(((trans-4-(3-Cyano-4-methoxyphenyl)cyclohexyl)methyl)(4-(1-isopropyl-1H-pyrazol-4-yl)pyridin-2-yl)carbamoyl)cyclohexyl 3-hydroxyazetidine-1-carboxylate]
COc1ncc([C@H]2CC[C@H](CN(c3cccc(-c4cnn(C5CC5)c4)c3)C(=O)[C@H]3CC[C@H](OC(=O)N4CC(O)C4)CC3)CC2)cc1Cl [Compound 7.23, trans-4-(((trans-4-(5-Chloro-6-methoxypyridin-3-yl)cyclohexyl)methyl)(3-(1-cyclopropyl-1H-pyrazol-4-yl)phenyl)carbamoyl) cyclohexyl 3-hydroxyazetidine-1-carboxylate]
COc1ccc([C@H]2CC[C@H](CN(c3cc(-c4cnn(C5CC5)c4)ccn3)C(=O)[C@H]3CC[C@H](OC(=O)N4CC(O)C4)CC3)CC2)nc1C [Compound 7.24, trans-4-((4-(1-Cyclopropyl-1H-pyrazol-4-yl)pyridin-2-yl)((trans-4-(5-methoxy-6-methylpyridin-2-yl)cyclohexyl)methyl)carbamoyl)cyclohexyl 3-hydroxyazetidine-1-carboxylate]
COc1ncc([C@H]2CC[C@H](CN(c3cccc(-c4cnn(C5CC5)c4)c3)C(=O)[C@H]3CC[C@H](OC(=O)N4CC(O)C4)CC3)CC2)cc1C [Compound 7.25, trans-4-((3-(1-Cyclopropyl-1H-pyrazol-4-yl)phenyl)((trans-4-(6-methoxy-5-methylpyridin-3-yl)cyclohexyl)methyl)carbamoyl)cyclohexyl 3-hydroxyazetidine-1-carboxylate]
COCC1CN(C(=O)O[C@H]2CC[C@H](C(=O)N(C[C@H]3CC[C@H](c4ccc(OC)c(C)c4)CC3)c3cccc(-c4cnn(C5CC5)c4)c3)CC2)C1 [Compound 7.26, trans-4-((3-(1-Cyclopropyl-1H-pyrazol-4-yl)phenyl)((trans-4-(4-methoxy-3-methylphenyl)cyclohexyl)methyl)carbamoyl)cyclohexyl 3-(methoxymethyl)azetidine-1-carboxylate]
COc1ccc([C@H]2CC[C@H](CN(c3cccc(-c4cnn(C5CC5)c4)c3)C(=O)[C@H]3CC[C@H](OC(=O)N4CC(N(C)C)C4)CC3)CC2)cc1C [Compound 7.27, trans-4-((3-(1-Cyclopropyl-1H-pyrazol-4-yl)phenyl)((trans-4-(4-methoxy-3-methylphenyl)cyclohexyl)methyl)carbamoyl)cyclohexyl 3-(dimethylamino)azetidine-1-carboxylate]
COc1ccc([C@H]2CC[C@H](CN(c3cccc(-c4cnn(C5CC5)c4)c3)C(=O)[C@H]3CC[C@H](OC(=O)N4CC(CO)C4)CC3)CC2)cc1C [Compound 7.28, trans-4-((3-(1-Cyclopropyl-1H-pyrazol-4-yl)phenyl)((trans-4-(4-methoxy-3-methylphenyl)cyclohexyl)methyl)carbamoyl)cyclohexyl 3-(hydroxymethyl)azetidine-1-carboxylate]
COc1ccc([C@H]2CC[C@H](CN(c3cccc(-c4cnn(C5CC5)c4)c3)C(=O)[C@H]3CC[C@H](OC(=O)N4CC[S+]([O-])CC4)CC3)CC2)cc1C [Compound 7.29, trans-4-((3-(1-Cyclopropyl-1H-pyrazol-4-yl)phenyl)((trans-4-(4-methoxy-3-methylphenyl)cyclohexyl)methyl)carbamoyl)cyclohexyl thiomorpholine-4-carboxylate 1-oxide]
COc1ccc([C@H]2CC[C@H](CN(c3cccc(-c4cnn(C5CC5)c4)c3)C(=O)[C@H]3CC[C@H](OC(=O)N4CCS(=O)(=O)CC4)CC3)CC2)cc1C [Compound 7.30, trans-4-((3-(1-Cyclopropyl-1H-pyrazol-4-yl)phenyl)((trans-4-(4-methoxy-3-methylphenyl)cyclohexyl)methyl)carbamoyl)cyclohexyl thiomorpholine-4-carboxylate1,1-dioxide]
COc1ccc([C@H]2CC[C@H](CN(c3cccc(-c4cnn(C5CC5)c4)c3)C(=O)[C@H]3CC[C@H](OC(=O)N4CCC4)CC3)CC2)cc1C [Compound 7.31, trans-4-((3-(1-Cyclopropyl-1H-pyrazol-4-yl)phenyl)((trans-4-(4-methoxy-3-methylphenyl)cyclohexyl)methyl)carbamoyl)cyclohexyl azetidine-1-carboxylate]
COc1ccc([C@H]2CC[C@H](CN(c3cccc(-c4cnn(C5CC5)c4)c3)C(=O)[C@H]3CC[C@H](OC(=O)N4CC(CN(C)C)C4)CC3)CC2)cc1C [Compound 7.32, trans-4-((3-(1-Cyclopropyl-1H-pyrazol-4-yl)phenyl)((trans-4-(4-methoxy-3-methylphenyl)cyclohexyl)methyl)carbamoyl)cyclohexyl 3-((dimethylamino)methyl)azetidine-1-carboxylate]
COc1ccc([C@H]2CC[C@H](CN(c3cccc(-c4cnn(C5CC5)c4)c3)C(=O)[C@H]3CC[C@H](OC(=O)N4CC(O)C4)CC3)CC2)nc1C#N [Compound 7.33, trans-4-(((trans-4-(6-Cyano-5-methoxypyridin-2-yl)cyclohexyl)methyl)(3-(1-cyclopropyl-1H-pyrazol-4-yl)phenyl)carbamoyl) cyclohexyl 3-hydroxyazetidine-1-carboxylate]
COC(=O)C1CN(C(=O)O[C@H]2CC[C@H](C(=O)N(C[C@H]3CC[C@H](c4ccc(OC)c(C)c4)CC3)c3cccc(-c4cnn(C5CC5)c4)c3)CC2)C1 [Compound 7.34, 1-(trans-4-((3-(1-Cyclopropyl-1H-pyrazol-4-yl)phenyl)((trans-4-(4-methoxy-3-methylphenyl)cyclohexyl)methyl)carbamoyl)cyclohexyl) 3-methylazetidine-1,3-dicarboxylate]
COc1ccc([C@H]2CC[C@H](CN(c3cccc(-c4cnn(C5CC5)c4)c3)C(=O)[C@H]3CC[C@H](OC(=O)N4CC(C(=O)O)C4)CC3)CC2)cc1C [Compound 7.35, 1-(((trans-4-((3-(1-Cyclopropyl-1H-pyrazol-4-yl)phenyl)((trans-4-(4-methoxy-3-methylphenyl)cyclohexyl)methyl)carbamoyl)cyclohexyl)oxy)carbonyl)azetidine-3-carboxylic acid]
COc1ccc([C@H]2CC[C@H](CN(c3cccc(-c4cnn(C5CC5)c4)c3)C(=O)[C@H]3CC[C@H](OC(=O)N4CC(N(C)C(=O)OC(C)(C)C)C4)CC3)CC2)cc1C [Compound 7.36, trans-4-((3-(1-Cyclopropyl-1H-pyrazol-4-yl)phenyl)((trans-4-(4-methoxy-3-methylphenyl)cyclohexyl)methyl)carbamoyl)cyclohexyl 3-((tert-butoxycarbonyl)(methyl)amino) azetidine-1-carboxylate]
CNC1CN(C(=O)O[C@H]2CC[C@H](C(=O)N(C[C@H]3CC[C@H](c4ccc(OC)c(C)c4)CC3)c3cccc(-c4cnn(C5CC5)c4)c3)CC2)C1 [Compound 7.37]
COc1ccc([C@H]2CC[C@H](CN(c3cccc(-c4cnn(C5CC5)c4)c3)C(=O)[C@H]3CC[C@H](OC(=O)N4CC(NC(=O)OC(C)(C)C)C4)CC3)CC2)cc1C [Compound 7.38, trans-4-((3-(1-Cyclopropyl-1H-pyrazol-4-yl)phenyl)((trans-4-(4-methoxy-3-methylphenyl)cyclohexyl)methyl)carbamoyl)cyclohexyl 3-((tert-butoxycarbonyl)amino)azetidine-1-carboxylate]
